target: T1, CYP4A (Homo sapiens, UniProt Q02928); test: CYP4A enzyme assay (Luciferin-ME luminescence, CYP4A bactosome); format: biochemical; settings: compound concentration 5 μM; 25%-50%; read-out: % Inhibition 25%-50%
T1 construct: host or cells: bactosome, i.e. bacterial membrane preparation (own knowledge of the term)
T1 sequence (Q02928 5-519): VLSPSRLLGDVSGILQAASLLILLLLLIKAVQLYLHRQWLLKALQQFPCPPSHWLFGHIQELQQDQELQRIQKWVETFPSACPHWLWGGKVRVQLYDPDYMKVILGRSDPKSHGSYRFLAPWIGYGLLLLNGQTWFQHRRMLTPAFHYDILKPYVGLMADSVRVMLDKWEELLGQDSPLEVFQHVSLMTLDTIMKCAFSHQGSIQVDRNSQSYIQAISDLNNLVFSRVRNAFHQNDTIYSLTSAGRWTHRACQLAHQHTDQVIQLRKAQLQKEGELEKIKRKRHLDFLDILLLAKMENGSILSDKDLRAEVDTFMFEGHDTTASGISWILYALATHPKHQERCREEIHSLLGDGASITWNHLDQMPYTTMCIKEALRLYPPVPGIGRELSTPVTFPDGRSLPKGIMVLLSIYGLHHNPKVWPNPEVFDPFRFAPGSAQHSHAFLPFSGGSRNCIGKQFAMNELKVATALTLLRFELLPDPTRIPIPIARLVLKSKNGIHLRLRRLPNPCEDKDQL
Method: A commercially available reagent was used for the reagent used in the experiment, and it was manufactured and used if necessary. The device used for activity measurement was EnVision of PerkinElmer or SpectraMax of MOLECULAR DEVICES.
First, CYP4A bactosome and synthetic compound (5 μM) were mixed in assay buffer (100 mM KPO4, 0.1% BSA, 1 mM DTT) in a 384-well plate (white opaque ploystyrene nontreated flat-bottom well), and then reacted at room temperature for 15 minutes. After adding 5 mM Luciferin-ME and NADPH Regeneration system (10× sol.A, 20× sol.B in assay buffer, Cat. Number: V865B, Promega), leave it at room temperature for 30 minutes to allow the CYP4A reaction to occur sufficiently, by adding the Luciferin Detection reagent, the CYP4A reaction was finished, luminescence reaction was induced, and the reaction was carried out at room temperature for 15 minutes. The degree of inhibition of CYP4A activity was measured by comparing the luminescence values from each well with a microplate reader.

Compound | inhibition at 5 µM
CCc1ccc(S(=O)(=O)N2CCCC(C(=O)N3CCN(c4cc(C)nc5ccccc45)CC3)C2)cc1 (centres unmarked) [Formula 23, (1-(4-ethylphenylsulfonyl)piperidin-3-yl) (4-(2-methylquinolin-4-yl)piperazin-1-yl) methanone] | 25 to 50%
Cc1cc(N2CCN(C(=O)C3CCCN(S(=O)(=O)c4ccccc4F)C3)CC2)c2ccccc2n1 (centres unmarked) [Formula 33, (1-(2-fluorophenylsulfonyl)piperidin-3-yl) (4-(2-methylquinolin-4-yl)piperazin-1-yl) methanone] | 25 to 50%
Cc1cc(N2CCN(C(=O)C3CCCN(S(=O)(=O)c4ccc(C)c(C)c4)C3)CC2)c2ccccc2n1 (centres unmarked) [Formula 22, (1-((3,4-dimethylphenyl)sulfonyl)piperidin-3-yl) (4-(2-methylquinolin-4-yl)piperazin-1-yl) methanone] | 25 to 50%
Cc1ccc(S(=O)(=O)N2CCCC(C(=O)N3CCN(c4cc(C)nc5ccccc45)CC3)C2)cc1 (centres unmarked) [Formula 20, (4-(2-methylquinolin-4-yl)piperazin-1-yl) (1-tosylpiperidin-3-yl) methanone] | 25 to 50%
Cc1cccc(S(=O)(=O)N2CCCC(C(=O)N3CCN(c4cc(C)nc5ccccc45)CC3)C2)c1 (centres unmarked) [Formula 21, (4-(2-methylquinolin-4-yl)piperazin-1-yl) (1-(m-tolylsulfonyl)piperidin-3-yl) methanone] | 25 to 50%

same assay, conditions: compound concentration 5 μM; 75% or more; read-out: % Inhibition 75% or more

Compound | inhibition at 5 µM
CC(=O)Nc1ccc(S(=O)(=O)N2CCC[C@@H](C(=O)N3CCN(c4cc(C)nc5ccccc45)CC3)C2)cc1 [Formula 16, (R)—N-(4-((3-(4-(2-methylquinolin-4-yl)piperazine-1-carbonyl)piperidin-1-yl)sulfonyl)phenyl) acetamide] | ≥ 75%
O=C([C@@H]1CCCN(S(=O)(=O)c2ccc(-c3ccncc3)cc2)C1)N1CCN(c2ccnc3cc(F)ccc23)CC1 [Formula 107, (R)-(4-(7-fluoroquinolin-4-yl)piperazin-1-yl) (1-(4-(pyridin-4-yl)phenylsulfonyl)piperidin-3-yl) methanone] | ≥ 75%
Cc1cc(N2CCN(C(=O)C3CCCN(S(=O)(=O)c4ccc(-c5ccncc5)cc4)C3)CC2)c2ccccc2n1 (centres unmarked) [Formula 102, (4-(2-methylquinolin-4-yl)piperazin-1-yl) (1-((4-(pyridin-4-yl)phenyl)sulfonyl)piperidin-3-yl)methanone] | 0%
CN(C)c1ccc(S(=O)(=O)N2CCC[C@@H](C(=O)N3CCN(c4ccnc5ccccc45)CC3)C2)cc1 [Formula 79, (R)-(1-(4-(dimethylamino)phenylsulfonyl)piperidin-3-yl) (4-(quinolin-4-yl)piperazin-1-yl)methanone] | ≥ 75%
CC(=O)Nc1ccc(S(=O)(=O)N2CCC[C@@H](C(=O)N3CCN(c4ccnc5cc(F)ccc45)CC3)C2)cc1 [Formula 46, (R)—N-(4-(3-(1-(7-fluoroquinolin-4-yl)piperazine-4-carbonyl)piperidin-1-ylsulfonyl)phenyl) acetamide] | ≥ 75%
Cc1cc(N2CCN(C(=O)C3CCCN(S(=O)(=O)c4ccc(-c5cnc(C)nc5)cc4)C3)CC2)c2ccccc2n1 (centres unmarked) [Formula 104, (1-((4-(2-methylpyrimidin-5-yl)phenyl)sulfonyl)piperidin-3-yl) (4-(2-methylquinolin-4-yl)piperazin-1-yl) methanone] | 0%
COc1cccc(S(=O)(=O)N2CCCC(C(=O)N3CCN(c4ccnc5ccccc45)CC3)C2)c1 (centres unmarked) [Formula 86, (1-(3-methoxyphenylsulfonyl)piperidin-3-yl) (4-(quinolin-4-yl)piperazin-1-yl) methanone] | ≥ 75%
Cc1cc(N2CCN(C(=O)C3CCCN(S(=O)(=O)c4ccc(N(C)C)cc4)C3)CC2)c2ccccc2n1 (centres unmarked) [Formula 31, (1-(4-(dimethylamino)phenylsulfonyl)piperidin-3-yl) (4-(2-methylquinolin-4-yl)piperazin-1-yl) methanone] | ≥ 75%
O=C(C1CCCN(S(=O)(=O)c2cccc([N+](=O)[O-])c2)C1)N1CCN(c2ccnc3cc(Cl)ccc23)CC1 (centres unmarked) [Formula 6, (4-(7-chloroquinolin-4-yl)piperazin-1-yl) (1-((3-nitrophenyl)sulfonyl)piperidin-3-yl) methanone] | ≥ 75%
CC(=O)Nc1ccc(S(=O)(=O)N2CCCC(C(=O)N3CCN(c4cc(C)nc5ccccc45)CC3)C2)cc1 (centres unmarked) [Formula 15, N-(4-(3-(1-(2-methylquinolin-4-yl)piperazine-4-carbonyl)piperidin-1-ylsulfonyl)phenyl) acetamide] | ≥ 75%
O=C(C1CCCN(S(=O)(=O)c2ccc(F)cc2)C1)N1CCN(c2ccnc3cc(F)ccc23)CC1 (centres unmarked) [Formula 42, (1-((4-fluorophenyl)sulfonyl)piperidin-3-yl) (4-(7-fluoroquinolin-4-yl)piperazin-1-yl) methanone] | ≥ 75%
O=C(C1CCCN(S(=O)(=O)c2ccc(F)cc2)C1)N1CCN(c2ccnc3ccccc23)CC1 (centres unmarked) [Formula 75, (1-(4-fluorophenylsulfonyl)piperidin-3-yl) (4-(quinolin-4-yl)piperazin-1-yl) methanone] | ≥ 75%
CCN(CC)c1ccc(S(=O)(=O)N2CCCC(C(=O)N3CCN(c4ccnc5ccccc45)CC3)C2)cc1 (centres unmarked) [Formula 83, (1-(4-(diethylamino)phenylsulfonyl)piperidin-3-yl) (4-(quinolin-4-yl)piperazin-1-yl)methanone] | ≥ 75%
O=C(C1CCCN(S(=O)(=O)c2ccc(-c3cccnc3)cc2)C1)N1CCN(c2ccnc3cc(F)ccc23)CC1 (centres unmarked) [Formula 108, (4-(7-fluoroquinolin-4-yl)piperazin-1-yl) (1-(4-(pyridin-3-yl)phenylsulfonyl)piperidin-3-yl) methanone] | ≥ 75%
O=C(C1CCCN(S(=O)(=O)c2ccc(O)cc2)C1)N1CCN(c2ccnc3cc(F)ccc23)CC1 (centres unmarked) [Formula 43, (4-(7-fluoroquinolin-4-yl)piperazin-1-yl) (1-((4-hydroxyphenyl)sulfonyl)piperidin-3-yl) methanone] | ≥ 75%
COc1cccc(S(=O)(=O)N2CCCC(C(=O)N3CCN(c4ccnc5cc(Cl)ccc45)CC3)C2)c1 (centres unmarked) [Formula 14] | ≥ 75%
Cc1cc(N2CCN(C(=O)C3CCCN(S(=O)(=O)c4ccc(O)cc4)C3)CC2)c2ccccc2n1 (centres unmarked) [Formula 32, (1-(4-hydroxyphenylsulfonyl)piperidin-3-yl) (4-(2-methylquinolin-4-yl)piperazin-1-yl) methanone] | ≥ 75%

same assay, conditions: compound concentration 5 μM; '50%-75%'; read-out: % Inhibition 50%-75%

Compound | inhibition at 5 µM
O=C([C@@H]1CCCN(S(=O)(=O)c2ccc(O)cc2)C1)N1CCN(c2cc(C(F)(F)F)nc3ccccc23)CC1 [Formula 69, (R)-(1-(4-hydroxyphenylsulfonyl)piperidin-3-yl) (4-(2-(trifluoromethyl)quinolin-4-yl)piperazin-1-yl) methanone] | 50 to 75%
O=C(C1CCCN(S(=O)(=O)c2ccccc2)C1)N1CCN(c2ccnc3cc(F)ccc23)CC1 (centres unmarked) [Formula 41, (4-(7-fluoroquinolin-4-yl)piperazin-1-yl) (1-(phenylsulfonyl)piperidin-3-yl) methanone] | 50 to 75%
Cc1cc(N2CCN(C(=O)C3CCCN(S(=O)(=O)c4cccc(F)c4)C3)CC2)c2ccccc2n1 (centres unmarked) [Formula 27, (1-(3-fluorophenylsulfonyl)piperidin-3-yl) (4-(2-methylquinolin-4-yl)piperazin-1-yl) methanone] | 50 to 75%
Cc1cc(N2CCN(C(=O)C3CCCN(S(=O)(=O)c4ccc(C(F)(F)F)cc4)C3)CC2)c2ccccc2n1 (centres unmarked) [Formula 26, (4-(2-methylquinolin-4-yl)piperazin-1-yl) (1-(4-(trifluoromethyl)phenylsulfonyl)piperidin-3-yl) methanone] | 50 to 75%
COc1ccc2c(N3CCN(C(=O)C4CCCN(S(=O)(=O)c5ccc(O)cc5)C4)CC3)ccnc2c1 (centres unmarked) [Formula 91, (1-(4-hydroxyphenylsulfonyl)piperidin-3-yl) (4-(7-methoxyquinolin-4-yl)piperazin-1-yl)methanone] | 50 to 75%
O=C(C1CCCN(S(=O)(=O)c2cccc(F)c2)C1)N1CCN(c2ccnc3cc(Cl)ccc23)CC1 (centres unmarked) [Formula 8, (4-(7-chloroquinolin-4-yl)piperazin-1-yl) (1-((3-fluorophenyl)sulfonyl)piperidin-3-yl) methanone] | 50 to 75%
Cc1cc(N2CCN(C(=O)C3CCCN(S(=O)(=O)c4ccc(C#N)cc4)C3)CC2)c2ccccc2n1 (centres unmarked) [Formula 35, 4-(3-(1-(2-methylquinolin-4-yl)piperazine-4-carbonyl)piperidin-1-ylsulfonyl)benzonitrile] | 50 to 75%
